Series [1] is described as follows: Pharmacokinetic studies of certain compounds in female Balb/c mice (Example 5). In kind it is in vivo. The settings on record: I-1 PO 30 mg/kg. The procedure: Pharmacokinetic studies were performed using Balb/c mice, 15-20 g, 6-9 weeks, female, N=9, purchased from Jihui Laboratory Animal Co. LTD. For compound I-29, Balb/c mice, 19-21 g, 9-11 weeks, female, N=9, were used. The mice were fasted overnight and fed at 4 h post dosing.
Animals were dosed via oral gavage (PO) or tail vein injection (IV) with compound. Sampling occurred at 0.083, 0.25, 0.5, 1, 2, 4, 8, and 24 h post dose (8 time points). The animals were restrained manually at the designated time points. Approx. […] of blood was taken from the animals via facial vein for semi-serial bleeding into tubes with K2EDTA. Blood samples were put on ice and centrifuged at 4° C. (2000 g, 5 min) to obtain plasma within 15 min after sample collection. Plasma samples were stored in dry ice temporarily and at approximately −70° C. until analysis.
For oral gavage, the compound was dosed as a suspension in 1% sodium carboxymethyl cellulose (CMC) and 0.2% Tween 80 in water. For 23.8 mg/kg and 30 mg/kg doses, 3 mg/mL was used; for 50 mg/kg doses, 5 mg/mL was used; and for 100 mg/kg doses, 10 mg/mL was used.
For IV administration, the compound was dosed as a solution in 5% DMSO, 5% Solutol HS15 and 90% saline. For 1 mg/kg and 1.48 mg/kg doses, 0.2 mg/mL was used.
Plasma samples were analyzed using LC-MS using a calibration curve of known concentrations.
The results of these studies are summarized in Tables 11-21 below and in FIGS. 2-8. […] BQL=below quantifiable limit for compound in female Balb/c mouse plasma samples. NA=not available. PK parameters were estimated by non-compartmental model using WinNonlin 8.2. If the adjusted rsq (linear regression coefficient of the concentration value on the terminal phase) was less than 0.9, T1/2 might not have been accurately estimated. F value was determined by the following equation: • If AUClast/AUCINF>80%:
F=(AUCINF-EX×DOSEIV)/(AUCINF-IV×DOSEEX)[…] • If AUClast/AUCINF<80% or AUCINF not available:
F=(AUClast-EX×DOSEIV)/(AUClast-IV×DOSEEX)*1000

The test system of the next series is ZR-75-1. The experiment in a line: Cell viability assay, adherent cell line, 5 day Alamar Blue (Example 8): ZR-75-1. It is filed as cell-based. The settings on record: Homo sapiens, 120 h, ZR-75-1, Breast Cancer Cell Viability. The procedure: Cell viability assays were performed on certain compounds of the disclosure, according to the following procedure.
Cell line specific media conditions used:
The procedure for adherent cell line compound screening was as follows:
• Cells were seeded in 96-well cell culture treated tissue culture plates: ZR-75-1, NIHOVCAR3, T47D, and LOVO cells 4000 cells/well; and HPAFII 3000 cell/well
Day 3: Compound Dilution and Dosing
• 5-fold serial dilution (8 point) of each compound in DMSO 0-25 mM in compound storage plates was prepared (stored at −80° C. if not to be used immediately). • Cells were rinsed with 1% FBS Media (appropriate to cell line as described above) and replaced with 87.5 μL media prior to dosing. HPAFII was screened in normal 10% FBS Media. • DMSO compound dilution series was diluted in 1% FBS media (appropriate to cell line as described above)—2 μL in 248 μL to give an 8× final concentration. • Cells were dosed 12.5 μL/well in triplicate to give final dose curved on cells 0-25 μM. • Media blank 100 μL/well×8 was set up. • All plates were incubated at 37° C.
Day 8: 5 Day Viability Assay
• Alamar Blue viability reagent was added (10 μL per well) and incubated for 3 hours at 37° C. prior to fluorescence detection (Ex560 nm/Em590 nm) on a Varioskan Lux multimode plate reader.
Results from cell viability assays are summarized in Table 23, wherein A represents IC50≤1 μM; B represents 1 μM<IC50≤8 μM; and C represents IC50>8 μM. Blank cells indicate that the compound was not tested in a particular assay.
For orientation: Alamar Blue is a resazurin reagent that responds to reducing activity.

Where [2] appears, read: 24 hr, BQL = below quantifiable limit of 1 ng/mL.

In general, AUC(0-inf) refers to total exposure, with the tail of the curve extrapolated. As a reminder, the AUC(0-t) is the area under the concentration-time curve up to a stated or last time point. A low value points to low exposure. One may read the Cmax as the peak of the concentration-time curve. By MRT inf is commonly meant a mean duration of stay, worked out from the concentration-time curve. As a reminder, the MRT last is the average time that molecules of a dose stay in the body. In general, Tmax refers to the time from dosing to the highest level. As usually defined, the half-life is the time needed for the level to fall by half in the phase considered. In general, IC50 refers to the midpoint of a concentration-inhibition curve. Read a low IC50 as greater potency in that assay.

SMILES strings stand for the structures. Where “and” joins values, the source holds several entries; their conditions need not be identical. Equal entries are not always repeated. Where two headings read alike, the source gives them in different places.

Turning to `CC(C)Cc1sc(Nc2ncc(-c3cccs3)cc2C(=O)O)nc1C1=CCOCC1` [Compound I-1], the “Plasma concentration Individual” value was 96.9 ng/mL and 51.8 ng/mL and 106 ng/mL in series [1] (0.083 hr, 30 mg/kg); 467 ng/mL and 432 ng/mL in series [1] (0.25 hr, 30 mg/kg); 464 ng/mL and 421 ng/mL in series [1] (0.5 hr, 30 mg/kg); 592 ng/mL and 498 ng/mL in series [1] (1 hr, 30 mg/kg); 367 ng/mL and 222 ng/mL in series [1] (2 hr, 30 mg/kg); 130 ng/mL and 153 ng/mL in series [1] (4 hr, 30 mg/kg). Besides, the “Plasma concentration Individual” value was 78.9 ng/mL and 6.72 ng/mL and 12.2 ng/mL in series [1] (8 hr, 30 mg/kg); “BQL” in series [1] (setting [2]). Moreover, the “Plasma concentration Mean” value in series [1] (setting [2]) is given as “BQL”. Besides, the concentration at 0.083 hr in series [1] (female, Balb/c, mouse, plasma, po, 30 mg/kg, 0.083 hr, read-out: Plasma concentration Mean) was determined as 84.9 ng/mL. Further, the concentration at 0.25 hr was determined as 383 ng/mL in series [1] (female, Balb/c, mouse, plasma, po, 30 mg/kg, 0.25 hr, read-out: Plasma concentration Individual) and 427 ng/mL in series [1] (female, Balb/c, mouse, plasma, po, 30 mg/kg, 0.25 hr, read-out: Plasma concentration Mean). In addition, the concentration at 0.5 h in series [1] (female, Balb/c, mouse, plasma, po, 30 mg/kg, 0.5 hr, read-out: Plasma concentration Individual) worked out at 397 ng/mL; in series [1] (female, Balb/c, mouse, plasma, po, 30 mg/kg, 0.5 hr, read-out: Plasma concentration Mean), 427 ng/mL. Further, the concentration at 1 h in series [1] (female, Balb/c, mouse, plasma, po, 30 mg/kg, 1 hr, read-out: Plasma concentration Individual) came to 320 ng/mL. Also, in series [1] (female, Balb/c, mouse, plasma, po, 30 mg/kg, 1 hr, read-out: Plasma concentration Mean), the concentration at 1 hr is 470 ng/mL. The concentration at 2 hr is 376 ng/mL in series [1] (female, Balb/c, mouse, plasma, po, 30 mg/kg, 2 hr, read-out: Plasma concentration Individual) and 322 ng/mL in series [1] (female, Balb/c, mouse, plasma, po, 30 mg/kg, 2 hr, read-out: Plasma concentration Mean). The concentration at 4 hr was found to be 193 ng/mL in series [1] (female, Balb/c, mouse, plasma, po, 30 mg/kg, 4 hr, read-out: Plasma concentration Individual) and 159 ng/mL in series [1] (female, Balb/c, mouse, plasma, po, 30 mg/kg, 4 hr, read-out: Plasma concentration Mean). Moreover, the concentration at 8 hr in series [1] (female, Balb/c, mouse, plasma, po, 30 mg/kg, 8 hr, read-out: Plasma concentration Mean) is 32.6 ng/mL. The AUC(0-inf) in series [1] (mouse, plasma) was determined as 1720 ng·h/mL. The AUC(0-t) in series [1] (mouse, plasma) turned out to be 1640 ng·h/mL. The compound also yielded a Cmax in series [1] (mouse, plasma) of 470 ng/mL. The MRT inf in series [1] (mouse, plasma) is 2.76 h. For the same compound, the MRT last in series [1] (mouse, plasma) turned out to be 2.35 h. Further, the Tmax in series [1] (mouse, plasma) turned out to be 1 h. In series [1] (mouse, plasma), the half-life is 1.81 h. Moreover, in the series with ZR-75-1, the IC50 is not above 1000 nM.
The compound `CC(C)Cc1sc(Nc2ncc(-c3cccs3)cc2C(=O)O)nc1C(C)(C)C` [Compound I-11] came in with an IC50 in the series on ZR-75-1 not above 1000 nM.

The values above are taken from patent US20240208961A1, “EIF4E INHIBITORS AND USES THEREOF” (PIC Therapeutics, Inc., priority 2022, published 2024).
